Laboratory results taken from patent US8017554B2, “3-amino-1,2-benzisothiazole compounds for combating animal pest” (BASF SE, priority 2006, dated 2011).

melting point: 111 to 114 °C
SMILES: CCN1C(=N)c2c(OC)cccc2S1(=O)=O [Compound example 3, 2-Ethyl-4-methoxy-1,1-dioxo-1,2-dihydro-1λ*6*-benzo[d]isothiazol-3-ylideneamine]
